# US11957687B2 (REGENERON PHARMACEUTICALS, INC., priority 2019, dated 2024)
# pIC50: −log10 of the molar value.
# Target: HSD17B13 (Homo sapiens (Human), UniProt Q7Z5P4)
# Experiment: HSD17B13 enzymatic inhibition assay (150 nM or 50 nM HSD17B13)
# Type: biochemical
# Settings: 50 nM HSD17B13; read-out: Inhibition of 50 nM of HSD17B13 IC50
# Chain of HSD17B13 (Q7Z5P4 other isoform, or with tags, fused parts or gaps): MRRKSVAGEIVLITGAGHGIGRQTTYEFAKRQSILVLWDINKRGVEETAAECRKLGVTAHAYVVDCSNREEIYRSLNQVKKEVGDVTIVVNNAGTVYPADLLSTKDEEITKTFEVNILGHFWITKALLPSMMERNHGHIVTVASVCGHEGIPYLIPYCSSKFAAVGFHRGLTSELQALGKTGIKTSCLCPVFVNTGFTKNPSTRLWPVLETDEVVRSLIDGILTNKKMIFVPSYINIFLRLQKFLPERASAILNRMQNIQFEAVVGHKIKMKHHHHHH
row,Compound,pIC50
1,"Cc1ccc2c(c1)C(NC(=O)c1ccc(C(F)F)[nH]c1=O)c1ccccc1O2 (centres unmarked) [Compound 276, 6-(difluoromethyl)-N-(2-methyl-9H-xanthen-9-yl)-2-oxo-1,2-dihydropyridine-3-carboxamide]",5.58
2,"O=C(NC1c2ccccc2Sc2ccccc21)c1ccc(C(F)F)[nH]c1=O [Compound 277, 6-(difluoromethyl)-2-oxo-N-(9H-thioxanthen-9-yl)-1,2-dihydropyridine-3-carboxamide]",5.57
3,"O=C(NC1c2ccccc2Oc2ccccc21)c1ccc(C(F)F)[nH]c1=O [Compound 278, 6-(difluoromethyl)-2-oxo-N-(9H-xanthen-9-yl)-1,2-dihydropyridine-3-carboxamide]",5.70
4,"Cc1ccc2c(c1)Oc1ccccc1C2NC(=O)c1ccc(C(F)F)[nH]c1=O (centres unmarked) [Compound 279, 6-(difluoromethyl)-N-(3-methyl-9H-xanthen-9-yl)-2-oxo-1,2-dihydropyridine-3-carboxamide]",6.74
5,"Cc1ccc2c(c1)Oc1cc(C)ccc1C2NC(=O)c1ccc(C(F)F)[nH]c1=O [Compound 280, 6-(difluoromethyl)-N-(3,6-dimethyl-9H-xanthen-9-yl)-2-oxo-1,2-dihydropyridine-3-carboxamide]",6.96
6,"Cc1ccc2c(c1)C(NC(=O)c1ccc(C(F)F)[nH]c1=O)c1ccccc1S2 (centres unmarked) [Compound 281, 6-(difluoromethyl)-N-(2-methyl-9H-thioxanthen-9-yl)-2-oxo-1,2-dihydropyridine-3-carboxamide]",5.73
7,"COc1ccc(-c2nc(SCc3cccc(C(F)(F)F)c3)[nH]c(=O)c2C#N)cc1 [Compound 283, 4-(4-methoxyphenyl)-6-oxo-2-((3-(trifluoromethyl)benzyl)thio)-1,6-dihydropyrimidine-5-carbonitrile]",5.32
8,"CCCC1Cc2cc(C)ccc2C1NC(=O)c1ccc(C(F)(F)F)[nH]c1=O (centres unmarked) [Compound 287, N-(5-methyl-2-propyl-2,3-dihydro-1H-inden-1-yl)-2-oxo-6-(trifluoromethyl)-1,2-dihydropyridine-3-carboxamide]",7.22
9,"Cc1ccc2c(c1)C(NC(=O)c1ccc(C(F)(F)F)[nH]c1=O)C(C)C2 (centres unmarked) [Compound 288, N-(2,6-dimethyl-2,3-dihydro-1H-inden-1-yl)-2-oxo-6-(trifluoromethyl)-1,2-dihydropyridine-3-carboxamide]",6.72
10,"CCC1Cc2ccc(C)cc2C1NC(=O)c1ccc(C(F)(F)F)[nH]c1=O (centres unmarked) [Compound 290, N-(2-ethyl-6-methyl-2,3-dihydro-1H-inden-1-yl)-2-oxo-6-(trifluoromethyl)-1,2-dihydropyridine-3-carboxamide]",7.10
11,"COc1ccc2c(c1)CCC(C)C2NC(=O)c1ccc(C(F)(F)F)[nH]c1=O (stereo not drawn) [Compound 292, N-(6-methoxy-2-methyl-1,2,3,4-tetrahydronaphthalen-l-yl)-2-oxo-6-(trifluoromethyl)-1,2-dihydropyridine-3-carboxamide]",6.66
12,"Cc1ccc2c(c1)CC(C)C2NC(=O)c1ccc(C(F)(F)F)[nH]c1=O (centres unmarked) [Compound 296, N-(2,5-dimethyl-2,3-dihydro-1H-inden-1-yl)-2-oxo-6-(trifluoromethyl)-1,2-dihydropyridine-3-carboxamide]",6.77
13,"CCC[C@@H]1C[C@H](NC(=O)c2ccc(C(F)(F)F)[nH]c2=O)C[C@H](CCC)O1 [Compound 303, N-((2R,4R,6S)-2,6-dipropyltetrahydro-2H-pyran-4-yl)-2-oxo-6-(trifluoromethyl)-1,2-dihydropyridine-3-carboxamide]",5.51
14,"Cc1ccc2c(c1)[C@H](N)CC[C@H]2NC(=O)c1ccc(C(F)(F)F)[nH]c1=O [Compound 304, N-((1R,4R)-4-amino-6-methyl-1,2,3,4-tetrahydronaphthalen-1-yl)-2-oxo-6-(trifluoromethyl)-1,2-dihydropyridine-3-carboxamide]",< 5.00
15,"Cc1ccc2c(c1)[C@@H](N)CC[C@H]2NC(=O)c1ccc(C(F)(F)F)[nH]c1=O [Compound 305, N-((1R,4S)-4-amino-6-methyl-1,2,3,4-tetrahydronaphthalen-1-yl)-2-oxo-6-(trifluoromethyl)-1,2-dihydropyridine-3-carboxamide]",5.11
16,"Cc1ccc2sc(C)c(NC(=O)c3ccc(C(F)(F)F)[nH]c3=O)c2c1 [Compound 310, N-(2,5-dimethylbenzo[b]thiophen-3-yl)-2-oxo-6-(trifluoromethyl)-1,2-dihydropyridine-3-carboxamide]",6.17
17,"NCc1cccc2c1CCCC2NC(=O)c1ccc(C(F)(F)F)[nH]c1=O (centres unmarked) [Compound 313, N-(5-(aminomethyl)-1,2,3,4-tetrahydronaphthalen-1-yl)-2-oxo-6-(trifluoromethyl)-1,2-dihydropyridine-3-carboxamide]",< 5.00
18,"CC(C)(C)OC(=O)NCCN1Cc2ccccc2C(NC(=O)c2ccc(C(F)(F)F)[nH]c2=O)C1 (centres unmarked) [Compound 314, tert-butyl (2-(4-(2-oxo-6-(trifluoromethyl)-1,2-dihydropyridine-3-carboxamido)-3,4-dihydroisoquinolin-2(1H)-yl)ethyl)carbamate]",5.26
19,"O=C(NC1CN(CCOCc2ccccc2)Cc2ccccc21)c1ccc(C(F)(F)F)[nH]c1=O (centres unmarked) [Compound 315, N-(2-(2-(benzyloxy)ethyl)-1,2,3,4-tetrahydroisoquinolin-4-yl)-2-oxo-6-(trifluoromethyl)-1,2-dihydropyridine-3-carboxamide]",6.02
20,"Cc1ccc2c(c1)N(CCOCc1ccccc1)CCC2NC(=O)c1ccc(C(F)(F)F)[nH]c1=O (centres unmarked) [Compound 316, N-(1-(2-(benzyloxy)ethyl)-7-methyl-1,2,3,4-tetrahydroquinolin-4-yl)-2-oxo-6-(trifluoromethyl)-1,2-dihydropyridine-3-carboxamide]",5.22
21,"CC(C)(C)OC(=O)N1Cc2ccccc2C(NC(=O)c2ccc(C(F)(F)F)[nH]c2=O)C1 (centres unmarked) [Compound 317, tert-butyl 4-(2-oxo-6-(trifluoromethyl)-1,2-dihydropyridine-3-carboxamido)-3,4-dihydroisoquinoline-2(1H)-carboxylate]",5.39

# Now from value to molecule:
row,pIC50,Compound
1,5.14,"O=C(NC1c2ccncc2Oc2ccc(O)cc21)c1ccc(C(F)(F)F)[nH]c1=O (centres unmarked) [Compound 318, N-(7-hydroxy-5H-chromeno[2,3-c]pyridin-5-yl)-2-oxo-6-(trifluoromethyl)-1,2-dihydropyridine-3-carboxamide]"
2,6.08,"COc1ccc2c(c1)C(NC(=O)c1ccc(C(F)(F)F)[nH]c1=O)c1ccncc1O2 (centres unmarked) [Compound 319, N-(7-methoxy-5H-chromeno[2,3-c]pyridin-5-yl)-2-oxo-6-(trifluoromethyl)-1,2-dihydropyridine-3-carboxamide]"
3,6.22,"O=C(NC1c2ccncc2Oc2cc(O)ccc21)c1ccc(C(F)(F)F)[nH]c1=O (centres unmarked) [Compound 320, N-(8-hydroxy-5H-chromeno[2,3-c]pyridin-5-yl)-2-oxo-6-(trifluoromethyl)-1,2-dihydropyridine-3-carboxamide]"
4,6.52,"COc1ccc2c(c1)Oc1cccnc1C2NC(=O)c1ccc(C(F)(F)F)[nH]c1=O (centres unmarked) [Compound 322, N-(7-methoxy-10H-chromeno[3,2-b]pyridin-10-yl)-2-oxo-6-(trifluoromethyl)-1,2-dihydropyridine-3-carboxamide]"
5,6.74,"Cc1cc2c(cn1)C(NC(=O)c1ccc(C(F)(F)F)[nH]c1=O)c1ccccc1O2 (centres unmarked) [Compound 325, N-(3-methyl-10H-chromeno[3,2-c]pyridin-10-yl)-2-oxo-6-(trifluoromethyl)-1,2-dihydropyridine-3-carboxamide]"
6,7.22,"Cc1ccc2c(c1)Oc1cccnc1C2NC(=O)c1ccc(C(F)(F)F)[nH]c1=O (centres unmarked) [Compound 326, N-(7-methyl-10H-chromeno[3,2-b]pyridin-10-yl)-2-oxo-6-(trifluoromethyl)-1,2-dihydropyridine-3-carboxamide]"
7,5.77,"Cc1cccc2c1C(NC(=O)c1ccc(C(F)(F)F)[nH]c1=O)c1cnccc1O2 (centres unmarked) [Compound 329, N-(9-methyl-10H-chromeno[3,2-c]pyridin-10-yl)-2-oxo-6-(trifluoromethyl)-1,2-dihydropyridine-3-carboxamide]"
8,6.22,"O=C(NC1c2ccccc2Oc2cccnc21)c1ccc(C(F)(F)F)[nH]c1=O (centres unmarked) [Compound 331, N-(10H-chromeno[3,2-b]pyridin-10-yl)-2-oxo-6-(trifluoromethyl)-1,2-dihydropyridine-3-carboxamide]"
9,5.89,"O=C(NC1c2ccccc2Oc2ccncc21)c1ccc(C(F)(F)F)[nH]c1=O (centres unmarked) [Compound 332, N-(10H-chromeno[3,2-c]pyridin-10-yl)-2-oxo-6-(trifluoromethyl)-1,2-dihydropyridine-3-carboxamide]"
10,6.13,"O=C(NC1c2ccccc2Oc2cnccc21)c1ccc(C(F)(F)F)[nH]c1=O (centres unmarked) [Compound 333, N-(5H-chromeno[2,3-c]pyridin-5-yl)-2-oxo-6-(trifluoromethyl)-1,2-dihydropyridine-3-carboxamide]"
11,5.62,"O=C(NC1c2ccccc2Oc2ncccc21)c1ccc(C(F)(F)F)[nH]c1=O (centres unmarked) [Compound 334, N-(5H-chromeno[2,3-b]pyridin-5-yl)-2-oxo-6-(trifluoromethyl)-1,2-dihydropyridine-3-carboxamide]"
12,5.35,"O=C(NC1CCCc2c(CCc3ccccc3)cccc21)c1ccc(C(F)(F)F)[nH]c1=O (centres unmarked) [Compound 335, 2-oxo-N-(5-phenethyl-1,2,3,4-tetrahydronaphthalen-1-yl)-6-(trifluoromethyl)-1,2-dihydropyridine-3-carboxamide]"
13,5.24,"CCN1CCC(NC(=O)c2ccc(C(F)(F)F)[nH]c2=O)c2ccc(C)cc21 (centres unmarked) [Compound 336, N-(1-ethyl-7-methyl-1,2,3,4-tetrahydroquinolin-4-yl)-2-oxo-6-(trifluoromethyl)-1,2-dihydropyridine-3-carboxamide]"
14,5.38,"CCCN1CCC(NC(=O)c2ccc(C(F)(F)F)[nH]c2=O)c2ccc(C)cc21 (centres unmarked) [Compound 337, N-(7-methyl-1-propyl-1,2,3,4-tetrahydroquinolin-4-yl)-2-oxo-6-(trifluoromethyl)-1,2-dihydropyridine-3-carboxamide]"
